From US9687529B2, “Method of controlling coagulation” (Duke University, priority 2011, dated 2017) come the findings set out here.

In data set [1] the test system is thrombin generation in normal human platelet poor plasma. The data set is described as follows: Calibrated automated thrombography (CAT). The class given is biochemical. The procedure: Normal human platelet poor plasma (80 μL) was mixed with aptamer(s) (10 μL) in an Immunolon 2HB U Bottom Mictrotiter 96-well plate (Thermo Labsystems, Franklin, Mass.) and incubated at 37° C. for 5 min. PPP reagent (Diagnostica Stago, Parsippany, N.J.) (either 1 ρM or 5 ρM TF, 20 μL, Diagnostica Stago) was added, and the mixture was incubated at 37° C. for another 5 min. FluCa (Diagnostica Stago) (10 μL) was added to initiate the assay and thrombin generation was measured for 60 minutes at 37° C. with a Fluoroskan Ascent fluorometer (ThermoLabsystem, Helsinki, Finland) according to the manufacturer's instructions. The amount of thrombin generated was quantified by comparison to an assay with thrombin calibrator reagent (Diagnostica Stago) that has a known activity toward the fluorogenic substrate. The lag time, peak amount of thrombin generated, and endogenous thrombin potential (ETP) were automatically calculated by the Thrombinoscope software (Thrombinoscope BV, the Netherlands).
Thrombin is the final protease formed in the coagulation cascade, and the rate of thrombin generation and the total amount of thrombin generated is associated with blood clot formation and stability (Wolberg, Blood Rev 21:131-42 (2007)). To gain more information about the impact of aptamer anticoagulation on the kinetics of thrombin generation, the individual aptamers were analyzed with calibrated automated thrombography (CAT). The CAT assay measures real-time thrombin generation in plasma by monitoring cleavage of a thrombin-specific fluorogenic substrate in response to TF stimulation (Heruker et al, Pathophysiol Haemost Thromb 33: 4-15 (2003)). The parameters of thrombin generation analyzed include: the lag time (time until thrombin generation begins), the peak (the maximal amount of thrombin generated at a given time) and the endogenous thrombin potential (ETP, the total amount of thrombin generated). Similar to the aPTT and PT clotting assays, all of the individual aptamers dose-dependently impacted the various parameters of thrombin generation (FIG. 21 and Table 1). […] 9.3T minorly impacted all parameters of thrombin generation with the high TF reagent; however, because high concentrations of TF may bypass FIX activity by directly generating FXa, the manufacturer recommends low concentrations of TF for analyzing FIX deficient (i.e, Hemophilia B) plasma in the CAT.

The test system of data set [2] is clot formation in whole blood. The data set is described as follows: Thromboelastography (TEG), whole blood stimulated with kaolin. The class given is cell-based, human. On the procedure:
(§1) Blood was drawn from healthy, consented volunteers under a Duke University Institutional Review Board approved protocol and anticoagulated with 3.2% sodium citrate. Whole blood (320 μL) was mixed with anticoagulant (heparin or aptamers) (10 μL) and kaolin (Haemonetics, Niles, Ill.) (10 μL) or CAT PRP reagent (Diagnostica Stago, 0.33 ρM TF final) (10 μL) was added to stimulate clotting. CaCl2 (20 μL) was immediately added to overcome the citrate, the mixture was added to a plain disposable plastic TEG cup (Haemonetics), and the assay was run according to the manufacturer's instructions. Clot formation at 37° C. was measured with a Thromboelastograph Analyzer (Haemonetics, Niles, Ill.) until a stable clot was formed (i.e., a maximum amplitude was reached) or for three hours with the aptamer combinations. The time lag time, α-angle, and maximum amplitude were automatically calculated by the TEG® Analytical Software version 4.2.3 (Haemonetics).
Although the aPTT, PT, and CAT assays provide basic information about dose-dependent anticoagulation, these assays are performed in an environment that lacks platelets. Platelets play a crucial role in clot formation by providing a membrane surface upon which the clotting factors assemble, by aggregating and becoming physically incorporated into the blood clot, and by releasing internal stores of agonists that amplify coagulation (Monroe et al, Arterioscler Thromb Vasc Biol 22:138 1-9 (2002)). Therefore, a study was made of aptamer anticoagulation with thromboelastography (TEG), which provides real-time information about the kinetics of clot formation in whole blood (Reikvam et al, Transfus Apher Sci; 40:119-23 (2009). The TEG assay uses mechanical motion to quantify the physical properties of clot formation, including the lag time (the time until clot formation), the α-angle (the rate of clot formation), and the maximum amplitude (the mechanical strength of the clot formed).

The subject of data set [3] is clot formation in whole blood. The data set is described as follows: Thromboelastography (TEG), whole blood stimulated with tissue factor. The format is cell-based, human. The procedure:
as §1
Because kaolin stimulates blood via the intrinsic pathway, it is unlikely that 7S-1 (FVIIa aptamer) would impair clot formation with this type of stimulation; thus, this aptamer was tested in a modified TEG with TF stimulation. CAT platelet rich plasma (PRP) reagent (TF) was diluted to a final concentration of 0.33 ρM TF to stimulate clotting.

For data set [4], the system named is clot formation in normal human platelet poor plasma. In words: Activated partial thromboplastin time (aPTT) plasma clotting assay. The format is biochemical. The conditions noted are these: aPTT. On the procedure: The activated partial thromboplastin time (aPTT) and prothrombin time (PT) assays were performed on a model ST4 mechanical coagulometer (Diagnostica Stago, Parsippany, N.J.) as previously described (Bompiani et al, J Thromb Haemost 10:870-80 (2012)). For the aPTT, 50 μL of normal human platelet poor plasma (PPP) was incubated with 50 μL TriniClot aPTT S (Trinity BioTech, Bray, Co Wicklow, Ireland) at 37° C. for 5 min. Aptamer(s) (5 μL) was added, and the mixture was incubated at 37° C. for another 5 min, and CaCl2 (50 μL) was added to initiate the assay. For the PT, 50 μL of normal human PPP was incubated with 5 μL of aptamer(s) at 37° C. for 5 min. TriniClot PT Excel reagent (Trinity BioTech, Bray, Co Wicklow, Ireland) (100 μL) was added to initiate the reaction. Assays with a combination of two aptamers contain an equimolar concentration of each individual aptamer, and the data shown are the total RNA concentration.
To compare the anticoagulant effect of these four aptamers, dose-response titrations were performed in several clinical plasma-based clotting assays. The activated partial thromboplastin time (aPTT) and prothrombin time (PT) are plasma clotting assays that are clinically used to probe for abnormalities in the intrinsic and extrinsic coagulation pathways, respectively (Van Cott et al, editors. Jacobs & DeMott laboratory test handbook. 5th ed. Hudson Ohio: Lexi-Comp. p. 327-58 (2001)). These relatively simple assays measure the time until clot formation in platelet poor plasma (PPP) in response to either robust tissue factor (TF), or contact stimulation via negatively charged surfaces (i.e., silica, kaolin, celite). […] At high concentrations, the prothrombin aptamer (R9D-14T) was the most robust anticoagulant and inhibited greater than 96% of prothrombin activity in the aPTT and PT. At 4 μM, R9D-14T increased the aPTT clotting time approximately 18-fold and the PT clotting time greater than 80-fold (exceeded the assay limit of 999 sec). […] At the same dose, the FIXa aptamer (9.3T) inhibited greater than 99% of FIX activity and increased the aPTT clotting time approximately 5.5-fold, while the FVIIa aptamer (7S-1) increased the PT clotting time 3-fold and inhibited greater than 99% of FVII activity (FIGS. 20A and 20B).

Strand notation (5' to 3'): a small letter for the sugar, then the base; units joined by * are phosphorothioate-linked, units joined directly phosphodiester-linked; [ ] holds rarer units or linkages, { } end groups; capitals alone tell only the bases. r = 2'-OH (RNA); f = 2'-fluoro

In data set [1] (RNA 120 nM, TF 1 ρM), “9.3Tmut: 9.3T mutant control, SEQ ID NO: 4 (AUGGGGACUGUGCCGCGUAAUGCUGCCUCCCCAU; 2'-fluoro at CU, RNA at AG, backbone not given here) [Aptamer 9.3Tmut, reference compound]” returned an ETP of 1446.83 ± 59.97 nM·min, a Lag-time of 3.11 ± 0.20 min, a Peak of 219.57 ± 33.93 nM and a TTP of 7.17 ± 0.59 min. Besides, in data set [1] (RNA 120 nM, TF 5 ρM), the ETP amounted to 1820.83 ± 80.77 nM·min, the Lag-time amounted to 1.89 ± 0.06 min, the Peak is listed as 355.41 ± 17.21 nM and the TTP amounted to 4.34 ± 0.10 min. For the same molecule, in data set [2] (RNA 2.0 μM), the Angle was 58.6 ± 7.8 deg, the Lag-time came to 7.3 ± 2.1 min and the “Max. Amplitude” value was found to be 60.1 ± 5.8 mm. In addition, in data set [3] (RNA 1.00 μM), the Angle came to 69.0 ± 4.8 deg, the Lag-time came to 2.7 ± 0.4 min and the “Max. Amplitude” value worked out at 67.2 ± 1.6 mm.
In data set [1] (RNA 1,000 nM, TF 5 ρM), “11F7Tmut: 11F7T mutant control, SEQ ID NO: 6 (rGrArGrArGfCfCfCfCrArGfCrGrArGrAfUrArAfUrAfCfUfUrGfUrAfCfCfCrGfCfUfCfUfU) [Aptamer 11F7Tmut, reference compound]” registered an ETP of 1902.67 ± 87.44 nM·min, a Lag-time of 1.39 ± 0.06 min, a Peak of 391.12 ± 13.27 nM and a TTP of 3.73 ± 0.06 min. Moreover, in data set [2] (RNA 2.0 μM), the Angle was found to be 69.7 ± 1.2 deg, the Lag-time is given as 5.1 ± 0.6 min and the “Max. Amplitude” value came out at 65.8 ± 0.8 mm. For the same molecule, in data set [3] (RNA 2.00 μM), the Angle was 68.5 ± 0.5 deg, the Lag-time worked out at 3.9 ± 0.2 min and the “Max. Amplitude” value stood at 67.9 ± 0.7 mm.
In data set [1] (RNA 5,000 nM, TF 5 ρM), “R9D-14Tmut: R9D-14T mutant control, SEQ ID NO: 7 (GGCGGTCGATCACACAGTTCAAACGTAATAAGCCGGCGTACGAGGCAGACGACTCGCC; 2'-fluoro at CT, RNA at AG, all phosphodiester, T or U not given here) [Aptamer R9D-14Tmut, reference compound]” had an ETP of 1564.33 ± 121.22 nM·min, a Lag-time of 1.44 ± 0.06 min, a Peak of 312.12 ± 8.89 nM and a TTP of 3.66 ± 0.17 min. Besides, in data set [2] (RNA 5.0 μM), the Angle worked out at 56.0 ± 4.8 deg, the Lag-time came out at 6.5 ± 0.4 min and the “Max. Amplitude” value is listed as 61.9 ± 4.0 mm. In data set [3] (RNA 5.00 μM), the Angle is 72.3 ± 0.7 deg, the Lag-time is on record as 2.7 ± 0.2 min and the “Max. Amplitude” value worked out at 66.1 ± 1.4 mm.

B1: 3G dogbone 4: truncate of FX/FII dogbone 4, SEQ ID NO: 23 (nucleic acid)
chain: GGGUCGAUCACACAGUUCAAACGUAAUAAGCCAAUGUACGAGGCAGACGACCCAAAGCCCCAGCGAGAUAAUACUUGGCCCCGCU
modifications: listed as RNA, chemistry not given here
Take B1: the “anti-coagulation activity of dogbone 4 truncates (in words)” value in data set [4] was “best anti-coagulation activity of the truncates”.

B2: FIX/FX dogbone 1: bifunctional FIX/FX dogbone aptamer, SEQ ID NO: 15 (nucleic acid)
chain: GGUGGAUGGGGACUAUACCGCGUAAUGCUGCCUCCCCAUCCACCAAAUAGCACGUAGAGAGCCCCAGCGAGAUAAUACUUGGCCCCGCUCUUUACGUGCUA
modifications: listed as RNA, chemistry not given here
As for B2, the “anti-coagulation of dogbones compared to the free combination of aptamers (in words)” value in data set [4] is listed as “equal anti-coagulation compared to the free combination”.

B3: 7S-1mut: 7S-1 mutant control, SEQ ID NO: 8 (nucleic acid)
chain: rGrGrGrArGrGrAfCrGrAfUrGfCrGrGrAfCfUfCfCfUfCfCrArArGfCrGrAfCfCrArAfCrAfUfCrGrGfUfCfUfUrAfUfUfUfCrArGrAfUfCrArAfCrArGrAfCrGrAfCfUfCrGfCfUrGrArGrGrAfUfCfCrGrArGrA
With B3, in data set [1] (RNA 30 nM, TF 5 ρM), the ETP amounted to 1890.67 ± 23.55 nM·min, the Lag-time worked out at 1.73 ± 0.06 min, the Peak is 357.63 ± 7.76 nM and the TTP is on record as 4.45 ± 0.06 min. In data set [3] (RNA 0.50 μM), the Angle was determined as 67.8 ± 3.8 deg, the Lag-time is listed as 3.1 ± 0.1 min and the “Max. Amplitude” value worked out at 67.2 ± 0.7 mm.

B4: FIX/FX dogbone 2: bifunctional FIX/FX dogbone aptamer, SEQ ID NO: 16 (nucleic acid)
chain: GGAUGGGGACUAUACCGCGUAAUGCUGCCUCCCCAUCCAAAACGUAGAGAGCCCCAGCGAGAUAAUACUUGGCCCCGCUCUUUACGU
modifications: listed as RNA, chemistry not given here
Turning to B4, the “anti-coagulation of dogbones compared to the free combination of aptamers (in words)” value in data set [4] is “equal anti-coagulation compared to the free combination”.

B5: FX/FII dogbone 1: bifunctional FX/FII dogbone aptamer, SEQ ID NO: 19 (nucleic acid)
chain: GGGGCGGUCGAUCACACAGUUCAAACGUAAUAAGCCAAUGUACGAGGCAGACGACUCGCCCCAAAACGUAGAGAGCCCCAGCGAGAUAAUACUUGGCCCCGCUCUUUACGU
modifications: listed as RNA, chemistry not given here
As for B5, the “anti-coagulation of dogbones compared to the free combination of aptamers (in words)” value in data set [4] is listed as “better anti-coagulation when compared to the free aptamers”.

B6: FX/FII dogbone 3: bifunctional FX/FII dogbone aptamer, SEQ ID NO: 21 (nucleic acid)
chain: GGGUCGAUCACACAGUUCAAACGUAAUAAGCCAAUGUACGAGGCAGACGACUCCAAAAGCCCCAGCGAGAUAAUACUUGGCCCCGCU
modifications: listed as RNA, chemistry not given here
Turning to B6, the “anti-coagulation of dogbones compared to the free combination of aptamers (in words)” value in data set [4] was “better anti-coagulation when compared to the free aptamers”.
